The values that follow come from BindingDB's records for doi:10.1016/s0014-2999(00)00916-x (The Royal Danish School of Pharmacy, 2001).

The target of test [1] is Glutamate receptor 3 (Rattus norvegicus, UniProt P19492).
Test [2] addresses Glutamate receptor ionotropic, kainate 1 (Rattus norvegicus, UniProt P22756).
Test [3] deals with Glutamate receptor ionotropic, NMDA 1 (Rattus norvegicus, UniProt P35439).

Chain of Glutamate receptor 3 (P19492 whole entry): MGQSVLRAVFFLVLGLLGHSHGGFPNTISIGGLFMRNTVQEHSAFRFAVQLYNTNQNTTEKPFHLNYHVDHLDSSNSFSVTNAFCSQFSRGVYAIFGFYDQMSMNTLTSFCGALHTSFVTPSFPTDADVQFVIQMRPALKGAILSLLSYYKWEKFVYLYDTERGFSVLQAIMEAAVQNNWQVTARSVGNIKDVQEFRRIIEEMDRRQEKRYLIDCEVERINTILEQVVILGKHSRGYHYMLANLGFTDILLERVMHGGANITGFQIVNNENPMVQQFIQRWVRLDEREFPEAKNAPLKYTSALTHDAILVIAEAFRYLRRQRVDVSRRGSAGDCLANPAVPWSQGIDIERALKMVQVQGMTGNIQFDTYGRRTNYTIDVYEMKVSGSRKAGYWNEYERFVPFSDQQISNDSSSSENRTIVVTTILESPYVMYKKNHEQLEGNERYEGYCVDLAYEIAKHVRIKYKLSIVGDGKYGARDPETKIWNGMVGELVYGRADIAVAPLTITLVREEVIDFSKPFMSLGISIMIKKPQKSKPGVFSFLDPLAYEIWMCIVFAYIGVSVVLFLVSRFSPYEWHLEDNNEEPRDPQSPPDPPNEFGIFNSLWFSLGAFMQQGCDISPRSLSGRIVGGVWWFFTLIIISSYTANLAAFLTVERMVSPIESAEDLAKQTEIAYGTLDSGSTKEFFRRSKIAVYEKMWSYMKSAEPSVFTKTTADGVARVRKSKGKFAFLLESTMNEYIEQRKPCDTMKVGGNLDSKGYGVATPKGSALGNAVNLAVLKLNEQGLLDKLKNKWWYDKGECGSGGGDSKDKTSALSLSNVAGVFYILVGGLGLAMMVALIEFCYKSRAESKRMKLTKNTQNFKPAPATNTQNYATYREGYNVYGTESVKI
Chain of Glutamate receptor ionotropic, kainate 1 (P22756 whole entry): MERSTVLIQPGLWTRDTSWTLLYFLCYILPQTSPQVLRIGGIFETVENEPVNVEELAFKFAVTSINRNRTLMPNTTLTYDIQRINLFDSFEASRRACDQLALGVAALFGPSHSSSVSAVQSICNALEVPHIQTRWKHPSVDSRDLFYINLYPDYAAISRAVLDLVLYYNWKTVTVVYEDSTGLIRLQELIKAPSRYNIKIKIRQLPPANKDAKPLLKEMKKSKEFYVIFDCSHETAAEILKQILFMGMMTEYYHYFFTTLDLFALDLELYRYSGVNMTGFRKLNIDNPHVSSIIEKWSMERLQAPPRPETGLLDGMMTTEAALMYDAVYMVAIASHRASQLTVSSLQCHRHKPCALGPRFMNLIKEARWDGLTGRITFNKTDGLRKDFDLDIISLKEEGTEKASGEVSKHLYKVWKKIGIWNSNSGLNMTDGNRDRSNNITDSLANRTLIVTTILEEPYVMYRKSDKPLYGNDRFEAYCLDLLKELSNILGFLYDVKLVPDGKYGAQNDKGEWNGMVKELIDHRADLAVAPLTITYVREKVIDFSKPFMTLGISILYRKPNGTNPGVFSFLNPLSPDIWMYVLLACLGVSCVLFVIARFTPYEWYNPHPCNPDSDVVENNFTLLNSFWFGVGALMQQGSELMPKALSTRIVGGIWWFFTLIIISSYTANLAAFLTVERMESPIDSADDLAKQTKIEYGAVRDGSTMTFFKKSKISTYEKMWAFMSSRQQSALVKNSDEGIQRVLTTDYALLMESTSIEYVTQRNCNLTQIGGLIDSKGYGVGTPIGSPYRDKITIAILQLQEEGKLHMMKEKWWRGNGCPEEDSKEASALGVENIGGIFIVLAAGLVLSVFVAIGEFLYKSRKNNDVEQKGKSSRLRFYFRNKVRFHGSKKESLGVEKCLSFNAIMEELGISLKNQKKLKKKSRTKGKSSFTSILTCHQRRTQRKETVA

The term Ki denotes a dissociation constant, usually derived from enzyme kinetics or from competition with a known ligand. A low value points to higher affinity. Regarding `CC(C)(C)c1o[nH]c(=O)c1C[C@H](N)C(=O)O` [ATPA-R], the Ki in test [1] is > 10 µM.

`CC(C)(C)c1o[nH]c(=O)c1C[C@@H](N)C(=O)O` [ATPA-S] displayed a Ki in test [1] of 1.8 µM.

Consider `CC(C)(C)c1onc(O)c1CC(N)C(=O)O` (stereo not given) [NSC_2253], for which the Ki in test [1] was > 10 µM.

For the molecule `CC(C)(C)c1snc(O)c1CC(N)C(=O)O` (stereo not given) [Thio-ATPA-S], the Ki in test [2] and in test [3] was > 10 µM in each case.
